Results published in patent US20260015350A1, “AZAQUINAZOLINE PAN-KRAS INHIBITORS” (Mirati Therapeutics, Inc., priority 2022, published 2026).

How the values were obtained:
KRas^G13D = molecular target: T1, KRas^G13D (Homo sapiens, UniProt P01116, G13D); assay: KRas binding assay (TR-FRET tracer displacement), KRas G13D; details: single point, 10 nM compound, TR-FRET
T1 construct: Biotinylated KRas (corresponding to amino acids 1-169, produced at Accelegan Inc.); biotin (biotinylated); purchased Accelegan Inc
T1 sequence (P01116 1-169 isoform P01116-2 G13D): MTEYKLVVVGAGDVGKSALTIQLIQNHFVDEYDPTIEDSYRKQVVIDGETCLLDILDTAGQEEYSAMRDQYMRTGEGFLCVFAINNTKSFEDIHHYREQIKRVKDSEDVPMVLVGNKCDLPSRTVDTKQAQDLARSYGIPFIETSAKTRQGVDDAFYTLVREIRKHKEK

KRas^G12A = molecular target: T2, KRas^G12A (Homo sapiens, UniProt P01116, G12A); assay: KRas binding assay (TR-FRET tracer displacement), KRas G12A; details: single point, 10 nM compound, TR-FRET
T2 construct: Biotinylated KRas (corresponding to amino acids 1-169, produced at Accelegan Inc.); biotin (biotinylated); purchased Accelegan Inc
T2 sequence (P01116 1-169 isoform P01116-2 G12A): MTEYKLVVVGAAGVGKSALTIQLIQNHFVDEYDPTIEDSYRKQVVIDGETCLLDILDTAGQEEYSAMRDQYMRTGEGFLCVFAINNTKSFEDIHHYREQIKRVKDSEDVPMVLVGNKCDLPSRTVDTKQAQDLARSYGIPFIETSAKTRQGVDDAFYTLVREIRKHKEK

KRas^G12R = molecular target: T3, KRas^G12R (Homo sapiens, UniProt P01116, G12R); assay: KRas binding assay (TR-FRET tracer displacement), KRas G12R
T3 construct: Biotinylated KRas (corresponding to amino acids 1-169, produced at Accelegan Inc.); biotin (biotinylated); purchased Accelegan Inc
T3 sequence (P01116 1-169 isoform P01116-2 G12R): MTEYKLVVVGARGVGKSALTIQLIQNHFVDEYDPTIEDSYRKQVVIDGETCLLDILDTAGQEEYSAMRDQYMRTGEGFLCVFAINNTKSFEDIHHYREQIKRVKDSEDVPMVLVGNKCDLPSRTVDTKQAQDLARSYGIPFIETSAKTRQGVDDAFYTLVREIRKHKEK

KRas^Q61H = molecular target: T4, KRas^Q61H (Homo sapiens, UniProt P01116, Q61H); assay: KRas binding assay (TR-FRET tracer displacement), KRas Q61H; details: single point, 10 nM compound, TR-FRET
T4 construct: Biotinylated KRas (corresponding to amino acids 1-169, produced at Accelegan Inc.); biotin (biotinylated); purchased Accelegan Inc
T4 sequence (P01116 1-169 isoform P01116-2 Q61H): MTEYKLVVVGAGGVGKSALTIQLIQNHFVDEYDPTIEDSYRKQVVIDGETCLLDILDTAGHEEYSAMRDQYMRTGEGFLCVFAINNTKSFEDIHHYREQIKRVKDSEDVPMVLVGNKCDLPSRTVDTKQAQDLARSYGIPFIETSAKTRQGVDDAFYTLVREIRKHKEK

[1] = test system: KRas-mediated phosphorylation of ERK in H727 cells; assay: Inhibition of KRas-mediated phosphorylation of ERK (Cisbio HTRF pERK), H727 cells; type: cell-based; details: Homo sapiens, NCI-H727, H727 cells; HTRF pERK
Summary of the method: (§1)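 Each compound was tested at 10 concentrations, threefold apart with 10 uM the highest, for 3 hrs on 6,000 seeded cells; final DMSO was 0.8% and Trametinib (0.2 uM) served as Min control. Lysed cells were analysed for pERK by HTRF.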

[2] = test system: KRas-mediated phosphorylation of ERK in A549 cells; assay: Inhibition of KRas-mediated phosphorylation of ERK (Cisbio HTRF pERK), A549 cells; type: cell-based; details: Homo sapiens; for IC50: HTRF pERK; for inhibition at 0.1 µM: A549, 3 h, single point, 100 nM compound, 3 hrs
Summary of the method: (§2)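 A cell-based HTRF pERK assay: ten-point, threefold titrations beginning at 10 uM were applied for 3 hrs, with 0.2 uM Trametinib wells as the minimum control. Cells were lysed cold, and lysate was incubated with the antibody pair for 2 hrs before reading.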

[3] = test system: KRas-mediated phosphorylation of ERK in MKN1 cells; assay: Inhibition of KRas-mediated phosphorylation of ERK (Cisbio HTRF pERK), MKN1 cells; type: cell-based; details: Homo sapiens, MKN-1
Summary of the method: (§3)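 Seeding density was 6,000 cells/well; medium RPMI, 10% FBS. Read-out by homogeneous time-resolved fluorescence (pERK) after 4 hours covered at room temperature.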

KRas^G12V = molecular target: T5, KRas^G12V (Homo sapiens, UniProt P01116, G12V); assay: KRas binding assay (TR-FRET tracer displacement), KRas G12V
T5 construct: Biotinylated KRas (corresponding to amino acids 1-169, produced at Accelegan Inc.); biotin (biotinylated); purchased Accelegan Inc
T5 sequence (P01116 1-169 isoform P01116-2 G12V): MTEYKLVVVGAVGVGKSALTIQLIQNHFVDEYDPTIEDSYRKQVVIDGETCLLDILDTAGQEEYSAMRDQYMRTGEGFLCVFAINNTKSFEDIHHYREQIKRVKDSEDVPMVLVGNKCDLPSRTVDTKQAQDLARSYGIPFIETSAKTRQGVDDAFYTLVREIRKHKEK

[4] = test system: KRas-mediated phosphorylation of ERK in HCT116 cells; assay: Inhibition of KRas-mediated phosphorylation of ERK (Cisbio HTRF pERK), HCT116 cells; type: cell-based; details: Homo sapiens; for inhibition at 0.1 µM: HCT-116, 3 h, single point, 100 nM compound, 3 hrs; for IC50: HCT-116, HTRF pERK
Summary of the method: as §2

KRas^WT = molecular target: T6, KRas^WT (Homo sapiens, UniProt P01116); assay: KRas binding assay (TR-FRET tracer displacement), KRas WT; details: single point, 10 nM compound, TR-FRET
T6 construct: Biotinylated KRas (corresponding to amino acids 1-169, produced at Accelegan Inc.); biotin (biotinylated); purchased Accelegan Inc
T6 sequence (P01116 1-169 isoform P01116-2): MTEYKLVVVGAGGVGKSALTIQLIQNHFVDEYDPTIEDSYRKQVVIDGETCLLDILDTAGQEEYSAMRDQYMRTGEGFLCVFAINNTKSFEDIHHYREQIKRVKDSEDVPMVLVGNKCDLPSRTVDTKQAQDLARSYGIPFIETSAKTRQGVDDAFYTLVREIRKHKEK

KRas^G12D = molecular target: T7, KRas^G12D (Homo sapiens, UniProt P01116, G12D); assay: KRas binding assay (TR-FRET tracer displacement), KRas G12D
T7 construct: Biotinylated KRas (corresponding to amino acids 1-169, produced at Accelegan Inc.); biotin (biotinylated); purchased Accelegan Inc
T7 sequence (P01116 1-169 isoform P01116-2 G12D): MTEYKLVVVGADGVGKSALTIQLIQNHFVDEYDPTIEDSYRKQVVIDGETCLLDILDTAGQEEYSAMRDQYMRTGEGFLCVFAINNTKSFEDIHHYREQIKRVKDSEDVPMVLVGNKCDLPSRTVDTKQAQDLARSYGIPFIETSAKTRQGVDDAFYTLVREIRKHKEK

[5] = test system: KRas-mediated phosphorylation of ERK in H460 cells; assay: Inhibition of KRas-mediated phosphorylation of ERK (Cisbio HTRF pERK), H460 cells; type: cell-based; details: Homo sapiens; for inhibition at 0.1 µM: NCI-H460, 3 h, single point, 100 nM compound, 3 hrs; for IC50: NCI-H460, HTRF pERK
Summary of the method: as §1

KRas^G12S = molecular target: T8, KRas^G12S (Homo sapiens, UniProt P01116, G12S); assay: KRas binding assay (TR-FRET tracer displacement), KRas G12S; details: single point, 10 nM compound, TR-FRET
T8 construct: Biotinylated KRas (corresponding to amino acids 1-169, produced at Accelegan Inc.); biotin (biotinylated); purchased Accelegan Inc
T8 sequence (P01116 1-169 isoform P01116-2 G12S): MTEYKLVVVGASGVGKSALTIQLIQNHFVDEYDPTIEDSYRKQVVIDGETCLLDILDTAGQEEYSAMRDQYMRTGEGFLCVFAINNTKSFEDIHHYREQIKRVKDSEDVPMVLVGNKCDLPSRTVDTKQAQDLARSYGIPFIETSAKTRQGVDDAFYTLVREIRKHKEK

[6] = test system: KRas-mediated phosphorylation of ERK in AsPC-1 cells; assay: Inhibition of KRas-mediated phosphorylation of ERK (Cisbio HTRF pERK), AsPC-1 cells; type: cell-based; details: Homo sapiens, ASPC1, AsPC-1 cells; HTRF pERK
Summary of the method: as §1

[7] = test system: KRas-mediated phosphorylation of ERK in PSN1 cells; assay: Inhibition of KRas-mediated phosphorylation of ERK (Cisbio HTRF pERK), PSN1 cells; type: cell-based; details: Homo sapiens
Summary of the method: as §3

[8] = test system: KRas-mediated phosphorylation of ERK in H358 cells; assay: Inhibition of KRas-mediated phosphorylation of ERK (Cisbio HTRF pERK), H358 cells; type: cell-based; details: Homo sapiens; for IC50: NCI-H358, HTRF pERK; for inhibition at 0.1 µM: NCI-H358, 3 h, single point, 100 nM compound, 3 hrs
Summary of the method: as §1

KRas^G12C = molecular target: T9, KRas^G12C (Homo sapiens, UniProt P01116, G12C); assay: KRas binding assay (TR-FRET tracer displacement), KRas G12C; details: single point, 10 nM compound, TR-FRET
T9 construct: Biotinylated KRas (corresponding to amino acids 1-169, produced at Accelegan Inc.); biotin (biotinylated); purchased Accelegan Inc
T9 sequence (P01116 1-169 isoform P01116-2 G12C): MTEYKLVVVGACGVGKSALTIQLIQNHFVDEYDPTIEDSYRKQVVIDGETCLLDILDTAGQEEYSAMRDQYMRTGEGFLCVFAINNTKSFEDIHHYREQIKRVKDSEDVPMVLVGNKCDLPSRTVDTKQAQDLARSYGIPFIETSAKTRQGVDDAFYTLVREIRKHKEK

SMILES | inhibition at 0.01 µM (KRas^G13D) [%] | inhibition at 0.01 µM (KRas^G12A) [%] | IC50 (KRas^G12R) [nM] | inhibition at 0.01 µM (KRas^Q61H) [%] | IC50 [1] [nM] | IC50 [2] [nM] | IC50 [3] [nM] | IC50 (KRas^G12V) [nM] | inhibition at 0.1 µM [4] [%] | IC50 [4] [nM] | inhibition at 0.01 µM (KRas^WT) [%] | IC50 (KRas^G12D) [nM] | inhibition at 0.1 µM [5] [%] | IC50 [5] [nM] | inhibition at 0.01 µM (KRas^G12S) [%] | IC50 [6] [nM] | IC50 [7] [nM] | inhibition at 0.01 µM (KRas^G12C) [%] | inhibition at 0.1 µM [2] [%] | inhibition at 0.1 µM [8] [%] | further results
CCc1c(F)ccc2cc(O)cc(-c3ncc4c(N5CCCC6(CCS(=O)(=O)N6)C5)nc(OC[C@@]56CCCN5C[C@H](F)C6)nc4c3F)c12 (stereo partly drawn) [Example 643, 7-(7-(8-ethyl-7-fluoro-3-hydroxynaphthalen-1-yl)-8-fluoro-2-(((2R,7aS)-2-fluorohexahydro-1H-pyrrolizin-7a-yl)methoxy)pyrido[4,3-d]pyrimidin-4-yl)-2-thia-1,7-diazaspiro[4.5]decane 2,2-dioxide] | 99 | 88 | < 2 | 100 | 21 | 16 | 4 | < 2 | 87 | 13 | 98 | < 2 | 100 | 5 | 98 | 6 | 625 | 99 | – | – | IC50 [8]: 2 nM
CCc1c(F)ccc2cc(O)cc(-c3ncc4c(N5CCCn6nc(C(=O)N(C)C)c(C)c6C5)nc(OC[C@@]56CCCN5C[C@H](F)C6)nc4c3F)c12 [Example 670, 5-(7-(8-ethyl-7-fluoro-3-hydroxynaphthalen-1-yl)-8-fluoro-2-(((2R,7aS)-2-fluorotetrahydro-1H-pyrrolizin-7a(5H)-yl)methoxy)pyrido[4,3-d]pyrimidin-4-yl)-N,N,3-trimethyl-5,6,7,8-tetrahydro-4H-pyrazolo[1,5-a][1,4]diazepine-2-carboxamide] | 98 | 98 | < 2 | 97 | 5 | 9 | 2 | < 2 | – | 53 | 98 | < 2 | – | 17 | 100 | 2 | 4680 | 99 | – | – | IC50 [8]: 1 nM
CCc1c(F)ccc2cc(O)cc(-c3ncc4c(N5CCCCn6nc(C(=O)N(C)C)cc6C5)nc(OC[C@@]56CCCN5C[C@H](F)C6)nc4c3F)c12 [Example 671, 5-(7-(8-ethyl-7-fluoro-3-hydroxynaphthalen-1-yl)-8-fluoro-2-(((2R,7aS)-2-fluorotetrahydro-1H-pyrrolizin-7a(5H)-yl)methoxy)pyrido[4,3-d]pyrimidin-4-yl)-N,N-dimethyl-4,5,6,7,8,9-hexahydropyrazolo[1,5-a][1,4]diazocine-2-carboxamide] | 93 | 97 | < 2 | 94 | 6 | – | 7 | < 2 | 35 | – | 93 | < 2 | 60 | – | 98 | 28 | 4110 | 98 | 60 | 98 | –
CCc1c(F)ccc2cc(O)cc(-c3ncc4c(N5CCC(O)c6nn(C(=O)N(C)C)cc6C5)nc(OC[C@@]56CCCN5C[C@H](F)C6)nc4c3F)c12 (stereo partly drawn) [Example 674, 5-(7-(8-ethyl-7-fluoro-3-hydroxynaphthalen-1-yl)-8-fluoro-2-(((2R,7aS)-2-fluorohexahydro-1H-pyrrolizin-7a-yl)methoxy)pyrido[4,3-d]pyrimidin-4-yl)-8-hydroxy-N,N-dimethyl-5,6,7,8-tetrahydropyrazolo[4,3-c]azepine-2(4H)-carboxamide] | 92 | 93 | < 2 | 95 | 21 | 30 | 6 | < 2 | 17 | 191 | 91 | < 2 | 63 | 69 | 97 | 9 | > 10000 | 98 | 74 | 97 | IC50 [8]: 2 nM
CCc1c(F)ccc2cc(O)cc(-c3ncc4c(N5CCCCn6nc(C(=O)N7CCOCC7)cc6C5)nc(OC[C@@]56CCCN5C[C@H](F)C6)nc4c3F)c12 [Example 690, (5-(7-(8-ethyl-7-fluoro-3-hydroxynaphthalen-1-yl)-8-fluoro-2-(((2R,7aS)-2-fluorotetrahydro-1H-pyrrolizin-7a(5H)-yl)methoxy)pyrido[4,3-d]pyrimidin-4-yl)-4,5,6,7,8,9-hexahydropyrazolo[1,5-a][1,4]diazocin-2-yl)(morpholino)methanone] | 90 | 93 | < 2 | 92 | 37 | – | 16 | < 2 | 20 | – | 91 | < 2 | 37 | – | 96 | 81 | 7620 | 97 | 4 | 79 | –
CCc1c(F)ccc2cc(O)cc(-c3ncc4c(N5CC6CC(O)C(C6)C5)nc(OC[C@]56CCCN5[C@H](COC(=O)N(C)C)CC6)nc4c3F)c12 (stereo partly drawn) [Example 707, ((3S,7aR)-7a-(((7-(8-ethyl-7-fluoro-3-hydroxynaphthalen-1-yl)-8-fluoro-4-(6-hydroxy-3-azabicyclo[3.2.1]octan-3-yl)pyrido[4,3-d]pyrimidin-2-yl)oxy)methyl)hexahydro-1H-pyrrolizin-3-yl)methyl dimethylcarbamate] | 85 | 76 | < 2 | 85 | 24 | – | 2 | 4 | 47 | – | 76 | 9 | 84 | – | 85 | 79 | 4410 | 84 | 71 | 88 | –
